Measured values as given in ChEMBL document CHEMBL6114998, “Design, Synthesis, and Pharmacological Evaluation of Quinazoline and Quinoline Derivatives as Potent ENPP1 Inhibitors for Cancer Immunotherapy” (J Med Chem, 2025).
Calls of active or inactive are those of the source. The calls are words filed in the database; no cut-off is given here.

Legend:
THP-1 [1] = assay: Activation of STING signalling pathway in human THP-1 cells assessed as increase in IRF3 phosphorylation at 300 nM preincubated with compound for 2 hrs followed by cGAMP addition and measured after 3 hrs by Western blot analysis; assay type: cell-based; settings: filed as activator, time 5.0 hrs
CT26 [2] = assay: Antitumor activity against mouse CT26 cells allografted in female BALB/c mouse assessed as decrease in M2-type macrophages in tumor tissue at 200 mg/kg QD, ip in presence of anti-PD-L1 antibody measured every 2 days for 12 days by immunohistochemical analysis; assay type: functional, organism-based; settings: time 12.0 day
[3] = Apparent permeability across apical to basal side in human Caco-2 cells at 10 uM by LC-MS/MS analysis; assay type: ADME, cell-based
CT26 [4] = assay: Antitumor activity against mouse CT26 cells allografted in female BALB/c mouse assessed as decrease in M2-type macrophages in tumor tissue at 200 mg/kg QD, ip in presence of anti-PD-L1 antibody measured every 2 days for 12 days by immunofluorescence analysis; assay type: functional, organism-based; settings: time 12.0 day
CT26 [5] = assay: Antitumor activity against mouse CT26 cells allografted in female BALB/c mouse assessed as decrease in M2-type macrophages in tumor tissue at 200 mg/kg QD, ip measured every 2 days for 12 days by immunofluorescence analysis; assay type: functional, organism-based; settings: time 12.0 day
[6] = Cmax in Sprague-Dawley rat at 10 mg/kg, iv measured upto 24 hrs by LC-MS/MS analysis; assay type: ADME, organism-based; settings: in vivo
CT26 [7] = assay: Antitumor activity against mouse CT26 cells allografted in female BALB/c mouse assessed as increase in M1-type macrophages in tumor tissue at 200 mg/kg QD, ip measured every 2 days for 12 days by immunofluorescence analysis; assay type: functional, organism-based; settings: time 12.0 day
[8] = Half life in Sprague-Dawley rat at 10 mg/kg, iv measured upto 24 hrs by LC-MS/MS analysis; assay type: ADME, organism-based; settings: in vivo
CT26 [9] = assay: Antitumor activity against mouse CT26 cells allografted in female BALB/c mouse assessed as decrease in M2-type macrophages in tumor tissue at 200 mg/kg QD, ip measured every 2 days for 12 days by immunohistochemical analysis; assay type: functional, organism-based; settings: time 12.0 day
[10] = target: T1, Ectonucleotide pyrophosphatase/phosphodiesterase family member 1 (Homo sapiens, UniProt P22413); assay: Inhibition of recombinant human ENPP1 transfected in HEK293T cells using cGAMP as substrate at pH 7.5 measured after 3.5 hrs by luminescence based AMP-glo assay; assay type: cell-based
T1 sequence (P22413 whole entry): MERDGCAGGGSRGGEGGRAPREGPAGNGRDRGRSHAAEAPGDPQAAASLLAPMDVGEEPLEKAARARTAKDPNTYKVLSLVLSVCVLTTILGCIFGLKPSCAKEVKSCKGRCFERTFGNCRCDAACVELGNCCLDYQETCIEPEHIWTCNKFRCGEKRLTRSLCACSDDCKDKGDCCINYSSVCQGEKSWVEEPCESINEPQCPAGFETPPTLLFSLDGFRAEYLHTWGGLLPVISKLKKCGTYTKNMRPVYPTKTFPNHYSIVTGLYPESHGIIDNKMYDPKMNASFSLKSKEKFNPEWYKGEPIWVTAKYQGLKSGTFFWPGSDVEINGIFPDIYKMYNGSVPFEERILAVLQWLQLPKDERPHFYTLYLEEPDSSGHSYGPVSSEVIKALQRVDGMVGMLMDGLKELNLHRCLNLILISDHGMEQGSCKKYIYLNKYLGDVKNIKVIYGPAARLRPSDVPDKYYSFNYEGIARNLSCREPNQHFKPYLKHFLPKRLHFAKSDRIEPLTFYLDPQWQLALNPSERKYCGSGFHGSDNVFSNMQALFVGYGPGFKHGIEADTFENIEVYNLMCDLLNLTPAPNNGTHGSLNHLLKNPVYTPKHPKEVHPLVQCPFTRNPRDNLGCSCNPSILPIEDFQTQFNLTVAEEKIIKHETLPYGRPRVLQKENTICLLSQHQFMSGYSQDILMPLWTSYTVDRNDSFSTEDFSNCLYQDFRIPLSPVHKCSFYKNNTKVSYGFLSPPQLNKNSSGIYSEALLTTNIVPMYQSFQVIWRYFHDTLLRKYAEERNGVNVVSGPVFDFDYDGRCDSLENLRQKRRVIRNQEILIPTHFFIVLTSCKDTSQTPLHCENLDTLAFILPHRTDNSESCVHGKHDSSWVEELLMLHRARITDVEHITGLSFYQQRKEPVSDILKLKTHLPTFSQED

THP1-Dual = assay: Activation of STING-mediated immune response in human THP1-Dual cells assessed as increase in cGAMP-induced ISRE activation preincubated in conditioned medium containing 36 hrs compound treated with human MDA-MB-231 cells measured after 24 hrs by quanti-luc luciferase assay; assay type: cell-based; settings: filed as activator, time 60.0 hrs
[11] = Toxicity in female BALB/c mouse allografted with mouse CT26 cells assessed as change in body weight at 200 mg/kg QD, ip measured every 2 days for 12 days; assay type: organism-based; settings: in vivo, 288 h, time 12 day
[12] = target: T1, Ectonucleotide pyrophosphatase/phosphodiesterase family member 1; assay: Inhibition of ENPP1 in human MDA-MB-231 cells using p-NPh-5TMP as substrate at pH 8.5 measured after 60 mins; assay type: cell-based
CT26 [13] = assay: Antitumor activity against mouse CT26 cells allografted in female BALB/c mouse assessed as increase in infiltration of CD8+T cells in tumor tissue at 200 mg/kg QD, ip measured every 2 days for 12 days by immunohistochemical analysis; assay type: functional, organism-based; settings: time 12.0 day
CT26 [14] = assay: Antitumor activity against mouse CT26 cells allografted in female BALB/c mouse plasma assessed as increase in IP-10 secretion in tumor tissue at 200 mg/kg QD, ip in presence of anti-PD-L1 antibody measured every 2 days for 12 days by ELISA analysis; assay type: functional, organism-based; settings: time 12.0 day
[15] = Clearance in Sprague-Dawley rat at 10 mg/kg, iv measured upto 24 hrs by LC-MS/MS analysis; assay type: ADME, organism-based; settings: in vivo
[16] = Toxicity in female BALB/c mouse allografted with mouse CT26 cells assessed as change in body weight at 200 mg/kg QD, ip in presence of anti-PD-L1 antibody measured every 2 days for 12 days; assay type: organism-based; settings: in vivo, 288 h, time 12 day
THP-1 [17] = assay: Activation of STING signalling pathway in human THP-1 cells assessed as increase in IFNB1 expression measured after 18 hrs in presence of cGAMP by qPCR analysis; assay type: cell-based; settings: filed as activator, dose 3-1000 nM
Homo sapiens = organism: Homo sapiens; assay: Inhibition of TLK (unknown origin) at 1 uM by KINOMEscan assay
CT26 [18] = assay: Antitumor activity against mouse CT26 cells allografted in female BALB/c mouse assessed as tumor growth inhibition at 200 mg/kg QD, ip measured every 2 days for 12 days in presence of anti-PD-L1 antibody relative to control; assay type: functional; settings: CT26, 288 h, time 12 day, read-out: TGI
CT26 [19] = assay: Antitumor activity against mouse CT26 cells allografted in female BALB/c mouse assessed as increase in CD8+T cells in tumor tissue at 200 mg/kg QD, ip measured every 2 days for 12 days by immunofluorescence analysis; assay type: functional, organism-based; settings: time 12.0 day
[20] = Efflux ratio of apparent permeability from basolateral to apical side over apical to basolateral side in human Caco-2 cells at 10 uM by LC-MS/MS analysis; assay type: ADME, cell-based

## COc1cccc2c(N3CCC(O)(CNS(N)(=O)=O)CC3)ncnc12
THP-1 [1]
  Activity: Active
CT26 [2]
  Activity: Active
[3]
  Papp A→B at 10 µM: 0.106 ×10⁻⁶ cm/s
CT26 [4]
  Activity: Active
CT26 [5]
  Activity: Active
[6]
  Cmax: 3220 ng/mL
CT26 [7]
  Activity: Active
[8]
  half-life: 46.7 min
CT26 [9]
  Activity: Active
[10]
  IC50: 8.05 nM
THP1-Dual
  Activity: Dose-dependent-effect
[11]
  Activity: Non-toxic
[12]
  IC50: 42 nM
CT26 [13]
  Activity: Active
CT26 [14]
  Activity: Active
[15]
  clearance: 84.5 mL/min/kg
[16]
  Activity: Non-toxic
THP-1 [17]
  Activity: Dose-dependent-effect
Homo sapiens
  inhibition: inactive
CT26 [18]
  inhibition in vivo at 200 mg/kg: 64.6%
CT26 [19]
  Activity: Active
[20]
  efflux ratio at 10 µM: 20.1
